Results as given in patent publication US20100080770A1, “Hepatitis C Virus Inhibitors” (priority 2008, published 2010).

What follows are compounds tested against T1, HCV NS3/4A protease complex (Hepatitis C virus genotype 1a, UniProt P27958, C1454S/C1711G) (assay: FRET peptide assay to monitor HCV NS3/4A proteolytic activity). Details: not given.
T1 construct: recombinant HCV NS3/4A protease complex (amino acids 1027 to 1711); inferred from the pET21b vector and Ni-NTA purification; made in house; host or cells: Escherichia coli BL21 (DE3)
T1 sequence (P27958 1027-1711 C1454S/C1711G, one chain of several): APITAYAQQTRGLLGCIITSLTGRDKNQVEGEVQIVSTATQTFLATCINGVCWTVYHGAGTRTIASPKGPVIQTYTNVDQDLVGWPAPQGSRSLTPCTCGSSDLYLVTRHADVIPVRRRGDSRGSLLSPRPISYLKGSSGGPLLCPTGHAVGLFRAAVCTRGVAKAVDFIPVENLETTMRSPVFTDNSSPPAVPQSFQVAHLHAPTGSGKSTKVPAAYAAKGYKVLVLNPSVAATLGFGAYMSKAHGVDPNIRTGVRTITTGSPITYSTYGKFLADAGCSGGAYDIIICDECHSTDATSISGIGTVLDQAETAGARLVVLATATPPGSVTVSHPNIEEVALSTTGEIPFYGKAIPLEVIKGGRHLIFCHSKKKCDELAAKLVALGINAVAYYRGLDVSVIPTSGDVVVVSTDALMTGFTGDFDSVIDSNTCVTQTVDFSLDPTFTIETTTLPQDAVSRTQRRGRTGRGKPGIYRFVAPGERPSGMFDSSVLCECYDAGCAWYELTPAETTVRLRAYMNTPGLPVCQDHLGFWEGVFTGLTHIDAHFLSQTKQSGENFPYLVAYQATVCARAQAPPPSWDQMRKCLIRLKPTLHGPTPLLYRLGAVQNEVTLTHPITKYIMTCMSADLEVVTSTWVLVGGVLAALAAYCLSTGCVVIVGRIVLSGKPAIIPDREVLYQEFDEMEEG
Type: biochemical
Description: HCV NS3 protease complexes, derived from the BMS strain, H77 strain or J4L6S strain, were generated, as described below. These purified recombinant proteins were generated for use in a homogeneous assay (see below) to provide an indication of how effective compounds of the present disclosure would be in inhibiting HCV NS3 proteolytic activity.
The H77 and J4L6S strains were used for production of recombinant NS3/4A protease complexes. DNA encoding the recombinant HCV NS3/4A protease complex (amino acids 1027 to 1711) for these strains was manipulated as described by P. Gallinari et al. (see Gallinari P, Paolini C, Brennan D, Nardi C, Steinkuhler C, De Francesco R. Biochemistry. 38(17):5620-32, (1999)). Briefly, a three-lysine solubilizing tail was added at the 3′-end of the NS4A coding region. The cysteine in the P1 position of the NS4A-NS4B cleavage site (amino acid 1711) was changed to a glycine to avoid the proteolytic cleavage of the lysine tag. Furthermore, a cysteine to serine mutation was introduced by PCR at amino acid position 1454 to prevent the autolytic cleavage in the NS3 helicase domain. The variant DNA fragment was cloned in the pET21b bacterial expression vector (Novagen) and the NS3/4A complex was expressed in Escherichia coli strain BL21 (DE3) (Invitrogen) following the protocol described by P. Gallinari et al. (see Gallinari P, Brennan D, Nardi C, Brunetti M, Tomei L, Steinkuhler C, De Francesco R., J Virol. 72(8):6758-69 (1998)) with modifications. Briefly, the NS3/4A protease complex expression was induced with 0.5 millimolar (mM) Isopropyl β-D-1-thiogalactopyranoside (IPTG) for 22 hours (h) at 20° C. A typical fermentation (1 Liter (L)) yielded approximately 10 grams (g) of wet cell paste. The cells were resuspended in lysis buffer (10 mL/g) consisting of 25 mM N-(2-Hydroxyethyl)Piperazine-N′-(2-Ethane Sulfonic acid) (HEPES), pH 7.5, 20% glycerol, 500 mM Sodium Chloride (NaCl), 0.5% Triton X-100, 1 microgram/milliliter (“μg/mL”) lysozyme, 5 mM Magnesium Chloride (MgCl2), 1 μg/ml DnaseI, 5 mM β-Mercaptoethanol (βME), Protease inhibitor-Ethylenediamine Tetraacetic acid (EDTA) free (Roche), homogenized and incubated for 20 minutes (min) at 4° C. The homogenate was sonicated and clarified by ultra-centrifugation at 235000 g for 1 hour (h) at 4° C. Imidazole was added to the supernatant to a final concentration of 15 mM and the pH adjusted to 8.0. The crude protein extract was loaded on a Nickel-Nitrilotriacetic acid (Ni-NTA) column pre-equilibrated with buffer B (25 mM HEPES, pH 8.0, 20% glycerol, 500 mM NaCl, 0.5% Triton X-100, 15 mM imidazole, 5 mM βME). The sample was loaded at a flow rate of 1 ml/min. The column was washed with 15 column volumes of buffer C (same as buffer B except with 0.2% Triton X-100). The protein was eluted with 5 column volumes of buffer D (same as buffer C except with 200 mM Imidazole).
NS3/4A protease complex-containing fractions were pooled and loaded on a desalting column Superdex-S200 pre-equilibrated with buffer D (25mM HEPES, pH 7.5, 20% glycerol, 300 mM NaCl, 0.2% Triton X-100, 10 mM βME). Sample was loaded at a flow rate of 1 mL/min. NS3/4A protease complex-containing fractions were pooled and concentrated to approximately 0.5 mg/ml. The purity of the NS3/4A protease complexes, derived from the BMS, H77 and J4L6S strains, were judged to be greater than 90% by SDS-PAGE and mass spectrometry analyses. The enzyme was stored at −80° C., thawed on ice and diluted prior to use in assay buffer.
The purpose of this in vitro assay was to measure the inhibition of HCV NS3 protease complexes, derived from the BMS strain, H77 strain or J4L6S strain, as described above, by compounds of the present disclosure. This assay provides an indication of how effective compounds of the present disclosure would be in inhibiting HCV NS3 proteolytic activity.
In order to monitor HCV NS3/4A protease activity, an NS3/4A peptide substrate was used. […]
Work on CO[C@@]12C[C@@H](C(=O)N[C@]3(C(=O)NS(=O)(=O)C4CC4)C[C@H]3C3CC3)N(C1)C(=O)[C@H](C(C)(C)C)NC(=O)OCCCCCCc1ccc3ccc2cc3c1 [Example 31] yielded an IC50 of 1 to 10 nM.

Same assay, conditions: HCV NS3/4A protease complex; strain not stated; class symbols; read-out: IC50
COc1cc2ccc3cc2cc1CCCCOC(=O)N[C@@H](C(C)(C)C)C(=O)N1C[C@@]3(OC)C[C@H]1C(=O)N[C@]1(C(=O)NS(=O)(=O)C2CC2)C[C@H]1C1CC1 [Example 2] was tested, and the IC50 was 11 to 12 nM.
For C=C[C@@H]1C[C@]1(NC(=O)[C@@H]1C[C@]2(OC)CN1C(=O)[C@H](C(C)(C)C)NC(=O)OCCCCc1cc3cc2ccc3cc1OC)C(=O)NS(=O)(=O)C1CC1 [Example 3], the IC50 was 1 to 10 nM.
Work on C=C[C@@H]1C[C@]1(NC(=O)[C@@H]1C[C@]2(OC)CN1C(=O)[C@H](C(C)(C)C)NC(=O)OCCCCCc1cc3cc2ccc3cc1OC)C(=O)NS(=O)(=O)C1CC1 [Example 5] yielded an IC50 of 1 to 10 nM.
In the case of COc1cc2ccc3cc2cc1CCCCCOC(=O)N[C@@H](C(C)(C)C)C(=O)N1C[C@@]3(OC)C[C@H]1C(=O)N[C@]1(C(=O)NS(=O)(=O)C2CC2)C[C@H]1C1CC1 [Example 6], the IC50 is reported as 1 to 10 nM.
Compound C=C[C@@H]1C[C@]1(NC(=O)[C@@H]1C[C@]2(OC)CN1C(=O)[C@H](C(C)(C)C)NC(=O)OCCCCCCCc1cc3cc2ccc3cc1OC)C(=O)NS(=O)(=O)C1CC1 [Example 20] has an IC50 of 11 to 12 nM.
COc1cc2ccc3cc2cc1CCCCCCCOC(=O)N[C@@H](C(C)(C)C)C(=O)N1C[C@@]3(OC)C[C@H]1C(=O)N[C@]1(C(=O)NS(=O)(=O)C2CC2)C[C@H]1C1CC1 [Example 21] gave an IC50 of 21 to 3200 nM.
COc1cc2ccc3cc2cc1CCCCCCCCOC(=O)N[C@@H](C(C)(C)C)C(=O)N1C[C@@]3(OC)C[C@H]1C(=O)N[C@]1(C(=O)NS(=O)(=O)C2CC2)C[C@H]1C1CC1 [Example 22] showed an IC50 of 1 to 10 nM.
Compound C=C[C@@H]1C[C@]1(NC(=O)[C@@H]1C[C@]2(OC)CN1C(=O)[C@H](C(C)(C)C)NC(=O)OCCCCCCCCc1cc3cc2ccc3cc1OC)C(=O)NS(=O)(=O)C1CC1 [Example 23] has an IC50 of 1 to 10 nM.
For C=C[C@@H]1C[C@]1(NC(=O)[C@@H]1C[C@]2(OC)CN1C(=O)[C@H](C(C)(C)C)NC(=O)OCCCCCCc1cc2cc2ccccc12)C(=O)NS(=O)(=O)C1CC1 [Example 24], the IC50 was 1 to 10 nM.
In the case of COc1cc2ccc3cc2cc1CCCCCCOC(=O)N[C@@H](C(C)(C)C)C(=O)N1C[C@@]3(O)C[C@H]1C(=O)N[C@]1(C(=O)NS(=O)(=O)C2CC2)C[C@H]1C1CC1 [Example 26], the IC50 is reported as 1 to 10 nM.
For COc1cc2ccc3cc2cc1CCCC(C)(C)CCOC(=O)N[C@@H](C(C)(C)C)C(=O)N1C[C@@]3(OC(=O)N(C)C)C[C@H]1C(=O)N[C@]1(C(=O)NS(=O)(=O)C2CC2)C[C@H]1C1CC1 [Example 27], the IC50 was 1 to 10 nM.
Work on COCO[C@@]12C[C@@H](C(=O)N[C@]3(C(=O)NS(=O)(=O)C4CC4)C[C@H]3C3CC3)N(C1)C(=O)[C@H](C(C)(C)C)NC(=O)OCCC(C)(C)CCCc1cc3cc2ccc3cc1OC [Example 28] yielded an IC50 of 1 to 10 nM.
C=C[C@@H]1C[C@]1(NC(=O)[C@@H]1C[C@]2(OC)CN1C(=O)[C@H](C(C)(C)C)NC(=O)OCCCCCCc1cc3cc2ccc3cc1N(C)C)C(=O)NS(=O)(=O)C1CC1 [Example 29] was tested, and the IC50 was 1 to 10 nM.
Work on CO[C@@]12C[C@@H](C(=O)N[C@]3(C(=O)NS(=O)(=O)C4CC4)C[C@H]3C3CC3)N(C1)C(=O)[C@H](C(C)(C)C)NC(=O)OCCCCCCc1cc3cc2ccc3cc1N(C)C [Example 30] yielded an IC50 of 1 to 10 nM.
Work on COc1c2cc3cc(ccc3c1Br)[C@]1(OC)C[C@@H](C(=O)N[C@]3(C(=O)NS(=O)(=O)C4CC4)C[C@H]3C3CC3)N(C1)C(=O)[C@H](C(C)(C)C)NC(=O)OCCC(C)(C)CCC2 [Example 33] yielded an IC50 of 11 to 12 nM.
COc1ccc2ccc3cc2c1CCCCCOC(=O)N[C@@H](C(C)(C)C)C(=O)N1C[C@@]3(OC)C[C@H]1C(=O)N[C@]1(C(=O)NS(=O)(=O)C2CC2)C[C@H]1C1CC1 [Example 36] showed an IC50 of 21 to 3200 nM.
COc1ccc2ccc3cc2c1CCCCOC(=O)N[C@@H](C(C)(C)C)C(=O)N1C[C@@]3(OC)C[C@H]1C(=O)N[C@]1(C(=O)NS(=O)(=O)C2CC2)C[C@H]1C1CC1 [Example 37] gave an IC50 of 21 to 3200 nM.
Compound COc1cc2ccc3cc2cc1CCCC(C)(C)CCOC(=O)N[C@@H](C(C)C)C(=O)N1C[C@@]3(OC)C[C@H]1C(=O)N[C@]1(C(=O)NS(=O)(=O)C2CC2)C[C@H]1C1CC1 [Example 38] has an IC50 of 1 to 10 nM.
For COc1cc2ccc3cc2cc1CCCC(C)(C)CCOC(=O)N[C@@H](C1CCOCC1)C(=O)N1C[C@@]3(OC)C[C@H]1C(=O)N[C@]1(C(=O)NS(=O)(=O)C2CC2)C[C@H]1C1CC1 [Example 39], the IC50 was 1 to 10 nM.
COc1cc2ccc3cc2cc1CCCC(C)(C)CCNC(=O)N[C@@H](C(C)(C)C)C(=O)N1C[C@@]3(OC)C[C@H]1C(=O)N[C@]1(C(=O)NS(=O)(=O)C2CC2)C[C@H]1C1CC1 [Example 40] gave an IC50 of 1 to 10 nM.
With COc1cc2ccc3cc2cc1CCCCCCCC(=O)N[C@@H](C(C)(C)C)C(=O)N1C[C@@]3(OC)C[C@H]1C(=O)N[C@]1(C(=O)NS(=O)(=O)C2CC2)C[C@H]1C1CC1 [Example 41] the IC50 was 1 to 10 nM.

Same assay, conditions: HCV NS3/4A protease complex; strain not stated; numeric values; read-out: IC50
In the case of C=C[C@@H]1C[C@]1(NC(=O)[C@@H]1C[C@]2(OC)CN1C(=O)[C@H](C(C)(C)C)NC(=O)OCCCCCc1cc2cc2ccccc12)C(=O)NS(=O)(=O)C1CC1 [Example 25], the IC50 is reported as 240 nM.
In the case of COc1c2cc3cc(ccc3c1Cl)[C@]1(OC)C[C@@H](C(=O)N[C@]3(C(=O)NS(=O)(=O)C4CC4)C[C@H]3C3CC3)N(C1)C(=O)[C@H](C(C)(C)C)NC(=O)OCCC(C)(C)CCC2 [Example 32], the IC50 is reported as 25 nM.
COc1cc2ccc3cc2cc1CCCC1(CCOC(=O)N[C@@H](C(C)(C)C)C(=O)N2C[C@@]3(OC)C[C@H]2C(=O)N[C@]2(C(=O)NS(=O)(=O)C3CC3)C[C@H]2C2CC2)CC1 [Example 34] showed an IC50 of 1 nM.
In the case of COc1ccc2ccc3cc2c1CCCCCCOC(=O)N[C@@H](C(C)(C)C)C(=O)N1C[C@@]3(OC)C[C@H]1C(=O)N[C@]1(C(=O)NS(=O)(=O)C2CC2)C[C@H]1C1CC1 [Example 35], the IC50 is reported as 413 nM.
